Test system: 695427-040-R-J1-PDC complex spheroid viability
Assay: Anticancer human tumor 695427-040-R-J1-PDC patient-derived colon adenocarcinoma cell line growth inhibition [RAS]
Details: for IC50: curve of first compound; for viability, T/C: stronger effect = lower value; active means viability on the fitted dose curve at most 10% of control; inactive means the rest
Procedure, shortened: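 Tumour cells grown as complex spheroids with HUVEC endothelial cells and mesenchymal stem cells, treated with RAS pathway inhibitor combinations. Each agent spans half-log steps from near clinical Cmax, or 10 microM where Cmax is unknown.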
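Further: viability read after seven days of drug exposure.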
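Wherever viability, T/C is given: 100% = DMSO vehicle control viability.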

C=CC(=O)N1CCN(c2nc(OCC3CCCN3C)nc3c(F)c(-c4nc(N)cc(C)c4C(F)(F)F)c(Cl)cc23)C(C)C1 (centres undefined) + CCn1c(-c2cccnc2C(C)OC)c2c3cc(ccc31)N1CCOC(CC(NC(=O)C(C(C)C)N(C)C(=O)C3(F)CCN(C(=O)C#CC(C)(C)N(C)C)CC3)C(=O)N3CCCC(N3)C(=O)OCC(C)(C)C2)C1
inactive: viability, T/C (second compound 0.000949 µM, first compound 0.00316 µM) 113% | viability, T/C (second compound 0.000949 µM, first compound 0.01 µM) 102% | viability, T/C (second compound 0.000949 µM, first compound 0.0316 µM) 76.5% | viability, T/C (second compound 0.000949 µM, first compound 0.1 µM) 75.5% | viability, T/C (second compound 0.000949 µM, first compound 0.316 µM) 95.3% | viability, T/C (second compound 0.000949 µM, first compound 1 µM) 93.1% | viability, T/C (second compound 0.003 µM, first compound 0.00316 µM) 109% | viability, T/C (second compound 0.003 µM, first compound 0.01 µM) 98.4% | viability, T/C (second compound 0.003 µM, first compound 0.0316 µM) 94% | viability, T/C (second compound 0.003 µM, first compound 0.1 µM) 77% | viability, T/C (second compound 0.003 µM, first compound 0.316 µM) 99.4% | viability, T/C (second compound 0.003 µM, first compound 1 µM) 106% | viability, T/C (second compound 0.00949 µM, first compound 0.00316 µM) 104% | viability, T/C (second compound 0.00949 µM, first compound 0.01 µM) 116% | viability, T/C (second compound 0.00949 µM, first compound 0.0316 µM) 85.1% | viability, T/C (second compound 0.00949 µM, first compound 0.1 µM) 80% | viability, T/C (second compound 0.00949 µM, first compound 0.316 µM) 105% | viability, T/C (second compound 0.00949 µM, first compound 1 µM) 95% | viability, T/C (second compound 0.03 µM, first compound 0.00316 µM) 97.1% | viability, T/C (second compound 0.03 µM, first compound 0.01 µM) 104% | viability, T/C (second compound 0.03 µM, first compound 0.0316 µM) 85.2% | viability, T/C (second compound 0.03 µM, first compound 0.1 µM) 75.9% | viability, T/C (second compound 0.03 µM, first compound 0.316 µM) 100% | viability, T/C (second compound 0.03 µM, first compound 1 µM) 108% | viability, T/C (second compound 0.0949 µM, first compound 0.00316 µM) 96.9% | viability, T/C (second compound 0.0949 µM, first compound 0.01 µM) 101% | viability, T/C (second compound 0.0949 µM, first compound 0.0316 µM) 107% | viability, T/C (second compound 0.0949 µM, first compound 0.1 µM) 84.4% | viability, T/C (second compound 0.0949 µM, first compound 0.316 µM) 102% | viability, T/C (second compound 0.0949 µM, first compound 1 µM) 107% | viability, T/C (second compound 0.3 µM, first compound 0.00316 µM) 84.2% | viability, T/C (second compound 0.3 µM, first compound 0.01 µM) 86.4% | viability, T/C (second compound 0.3 µM, first compound 0.0316 µM) 89.1% | viability, T/C (second compound 0.3 µM, first compound 0.1 µM) 88.8% | viability, T/C (second compound 0.3 µM, first compound 0.316 µM) 88.7% | viability, T/C (second compound 0.3 µM, first compound 1 µM) 78%
> 1 µM: IC50 (second compound 0.000949 µM) | IC50 (second compound 0.003 µM) | IC50 (second compound 0.00949 µM) | IC50 (second compound 0.03 µM) | IC50 (second compound 0.0949 µM) | IC50 (second compound 0.3 µM)

CC1(C)CCC(Nc2ncc(C(F)(F)F)c(-c3c[nH]c4c(P(C)(C)=O)c(C#N)ccc34)n2)CN1 (centres undefined) + CCn1c(-c2cccnc2C(C)OC)c2c3cc(ccc31)N1CCOC(CC(NC(=O)C(C(C)C)N(C)C(=O)C3(F)CCN(C(=O)C#CC(C)(C)N(C)C)CC3)C(=O)N3CCCC(N3)C(=O)OCC(C)(C)C2)C1
> 0.3 µM: IC50 (second compound 0.000949 µM) | IC50 (second compound 0.003 µM) | IC50 (second compound 0.00949 µM) | IC50 (second compound 0.03 µM) | IC50 (second compound 0.0949 µM) | IC50 (second compound 0.3 µM)
inactive: viability, T/C (second compound 0.000949 µM, first compound 0.000949 µM) 85% | viability, T/C (second compound 0.000949 µM, first compound 0.003 µM) 116% | viability, T/C (second compound 0.000949 µM, first compound 0.00949 µM) 95.5% | viability, T/C (second compound 0.000949 µM, first compound 0.03 µM) 100% | viability, T/C (second compound 0.000949 µM, first compound 0.0949 µM) 85.6% | viability, T/C (second compound 0.000949 µM, first compound 0.3 µM) 90.6% | viability, T/C (second compound 0.003 µM, first compound 0.000949 µM) 104% | viability, T/C (second compound 0.003 µM, first compound 0.003 µM) 105% | viability, T/C (second compound 0.003 µM, first compound 0.00949 µM) 81% | viability, T/C (second compound 0.003 µM, first compound 0.03 µM) 103% | viability, T/C (second compound 0.003 µM, first compound 0.0949 µM) 86.9% | viability, T/C (second compound 0.003 µM, first compound 0.3 µM) 55.1% | viability, T/C (second compound 0.00949 µM, first compound 0.000949 µM) 108% | viability, T/C (second compound 0.00949 µM, first compound 0.003 µM) 104% | viability, T/C (second compound 0.00949 µM, first compound 0.00949 µM) 98.3% | viability, T/C (second compound 0.00949 µM, first compound 0.03 µM) 113% | viability, T/C (second compound 0.00949 µM, first compound 0.0949 µM) 103% | viability, T/C (second compound 0.00949 µM, first compound 0.3 µM) 65.4% | viability, T/C (second compound 0.03 µM, first compound 0.000949 µM) 101% | viability, T/C (second compound 0.03 µM, first compound 0.003 µM) 80.8% | viability, T/C (second compound 0.03 µM, first compound 0.00949 µM) 89.9% | viability, T/C (second compound 0.03 µM, first compound 0.03 µM) 90.5% | viability, T/C (second compound 0.03 µM, first compound 0.0949 µM) 97.5% | viability, T/C (second compound 0.03 µM, first compound 0.3 µM) 90.1% | viability, T/C (second compound 0.0949 µM, first compound 0.000949 µM) 105% | viability, T/C (second compound 0.0949 µM, first compound 0.003 µM) 78.2% | viability, T/C (second compound 0.0949 µM, first compound 0.00949 µM) 107% | viability, T/C (second compound 0.0949 µM, first compound 0.03 µM) 98% | viability, T/C (second compound 0.0949 µM, first compound 0.0949 µM) 93.3% | viability, T/C (second compound 0.0949 µM, first compound 0.3 µM) 80.2% | viability, T/C (second compound 0.3 µM, first compound 0.000949 µM) 75.7% | viability, T/C (second compound 0.3 µM, first compound 0.003 µM) 93.8% | viability, T/C (second compound 0.3 µM, first compound 0.00949 µM) 84.3% | viability, T/C (second compound 0.3 µM, first compound 0.03 µM) 92.1% | viability, T/C (second compound 0.3 µM, first compound 0.0949 µM) 85.7% | viability, T/C (second compound 0.3 µM, first compound 0.3 µM) 78.1%

— PubChem BioAssay AID2060888 (Molecular Pharmacology Branch, DTP, NCI, 2025)
